Values quoted from earlier work in patent US5627200A, “β3 -Adrenoceptor agonists and antagonists for the treatment of intestinal motility disorders, depression, prostate disease and dyslipidemia” (Pfizer Inc, priority 1994, dated 1997).

Tests used:
[1] = system: genetic animal models of obesity and diabetes
[2] = system: rodent models of depression; details: reported in Europ. J. Pharm., 219, 193 (1992)

SMILES | plasma fatty acids [1] | plasma triglycerides [1] | activity in rodent models of depression [2]
COC(=O)COc1ccc(CC(C)NCC(O)c2cccc(Cl)c2)cc1 (stereo not drawn) [N-[2-(4-carbomethoxymethoxyphenyl)-1-methylethyl]-2-hydroxy-2-(3-chlorophenyl)ethanamine] | reduces | reduces | 
CCOC(=O)COc1ccc2c(c1)C[C@@H](NC[C@H](O)c1cccc(Cl)c1)CC2.Cl [N-[(2S)-7-carbethoxymethoxy-1,2,3,4-tetrahydronaphth-2-yl]-(2R)-2-hydroxy-2-(3-chlorophenyl)-ethanamine hydrochloride] |  |  | demonstrate activity in rodent models of depression
